Activity calls are given as the source filed them. No rule for the calls is given here.
Molecular target: fMet-Leu-Phe receptor (Homo sapiens) (UniProt P21462)
Test: human FPR1 ligand displacement potency – cell-based, flow cytometry, Ki from IC50, dose response (AID 724)
Details: FPR1-expressing cells, fluorescent ligand binding competition; for IC50: measured here: IC50 of ligand binding inhibition

fMet-Leu-Phe receptor (Homo sapiens), sequence (P21462 whole entry, looked up): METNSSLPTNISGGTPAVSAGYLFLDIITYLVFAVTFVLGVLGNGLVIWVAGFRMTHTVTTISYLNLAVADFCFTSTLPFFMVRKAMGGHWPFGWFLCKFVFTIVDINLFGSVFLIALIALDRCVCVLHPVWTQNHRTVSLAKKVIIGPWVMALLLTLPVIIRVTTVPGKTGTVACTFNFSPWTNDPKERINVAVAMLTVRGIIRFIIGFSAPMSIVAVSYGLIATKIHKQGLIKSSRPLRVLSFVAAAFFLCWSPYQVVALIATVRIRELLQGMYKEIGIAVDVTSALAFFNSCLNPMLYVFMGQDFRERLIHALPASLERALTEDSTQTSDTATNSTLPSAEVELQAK

Row | Ki | IC50 | SMILES
1 | 3.4 µM | 5.2 µM | COc1ccc(C2/C(=C(\O)c3ccccc3)C(=O)C(=O)N2CCCn2ccnc2)c(OC)c1 (stereo not given)
2 | > 44.3 µM (inactive) |  | Cc1ccc(/C(O)=C2\C(=O)C(=O)N(c3nnc(C)s3)C2c2ccc(C(C)C)cc2)cc1 (stereo not given)
3 | inactive | 50.7 µM | CC(C)c1ccc(C2/C(=C(\O)c3ccccc3)C(=O)C(=O)N2Cc2cccnc2)cc1 (stereo not given)
4 |  | 1.7 µM | O=C(Oc1ccc2c(=O)c(-c3ccccc3Cl)c(C(F)(F)F)oc2c1)c1cccs1
5 | > 44.3 µM (inactive) |  | O=C(C1=C(O)C(=O)N(CCCN2CCOCC2)C1c1cccnc1)c1cc2ccccc2o1 (stereo not given)
6 |  | 5 µM | COc1ccc(-c2c(C(F)(F)F)oc3cc(OC(=O)c4ccco4)ccc3c2=O)cc1OC
7 | 2.9 µM | 4.4 µM | COc1ccc(C2C(C(=O)c3cccs3)=C(O)C(=O)N2CCN2CCOCC2)c(OC)c1 (stereo not given)
8 | inactive | 17.2 µM | CC(=O)C1=C(O)C(=O)N(CCc2c(C)[nH]c3ccccc23)C1c1cccc(F)c1 (stereo not given)
9 | > 44.3 µM (inactive) |  | CCCCCCOc1cccc(N2C(=O)C(=O)/C(=C(\O)c3ccccc3)C2c2cccc(F)c2)c1 (stereo not given)
10 | > 44.3 µM (inactive) |  | Cc1ccc(/C(O)=C2\C(=O)C(=O)N(Cc3cccnc3)C2c2ccc(Br)cc2)cc1 (stereo not given)
11 |  | 1.7 µM | COc1ccccc1-c1c(C(F)(F)F)oc2cc(OC(=O)c3ccco3)ccc2c1=O
12 | inactive | 25.7 µM | COc1ccc(OC)c(C2/C(=C(\O)c3ccccc3)C(=O)C(=O)N2c2ccc(C)c(Cl)c2)c1 (stereo not given)
13 | > 44.3 µM (inactive) |  | COc1cc(C2C(C(C)=O)=C(O)C(=O)N2c2ccc(Br)cc2)ccc1O (stereo not given)
14 | 6.4 µM | 9.8 µM | COc1ccc(C2C(C(=O)c3ccco3)=C(O)C(=O)N2CCN2CCOCC2)c(OC)c1 (stereo not given)
15 | 4.7 µM | 7.2 µM | CCCCCCN1C(=O)C(=O)/C(=C(\O)c2ccccc2)C1c1ccc(O)c(OC)c1 (stereo not given)
16 | > 44.3 µM (inactive) |  | N#Cc1c(N/C(=C\C(=O)c2ccccc2)C(=O)O)sc2c1CCC2
17 | > 44.3 µM (inactive) |  | COc1ccc(C2C(C(=O)c3ccco3)=C(O)C(=O)N2CCCN2CCOCC2)cc1OC (stereo not given)
18 | inactive | 59.7 µM | COc1ccc(C2/C(=C(\O)c3ccc(C)cc3)C(=O)C(=O)N2Cc2cccnc2)c(OC)c1 (stereo not given)
19 | 6.9 µM | 10.6 µM | O=C(C1=C(O)C(=O)N(CCc2ccccc2)C1c1ccc(Cl)cc1)c1cccs1 (stereo not given)
20 | > 44.3 µM (inactive) |  | O=C1C(=O)N(CN2CCOCC2)C(c2ccc(Br)cc2)/C1=C(\O)c1ccccc1 (stereo not given)

Row | Ki | IC50 | SMILES
21 | 4.7 µM | 7.1 µM | COc1ccc(C2C(C(=O)c3cccs3)=C(O)C(=O)N2CCCn2ccnc2)cc1 (stereo not given)
22 | inactive | 50.5 µM | COCCCN1C(=O)C(=O)/C(=C(/O)c2ccccc2)C1c1ccc(O)c(OC)c1 (stereo not given)
23 | 6 µM | 9.2 µM | COc1ccc(OC)c(C2/C(=C(\O)c3ccccc3)C(=O)C(=O)N2c2cccnc2)c1 (stereo not given)
24 | inactive | 47.5 µM | COc1ccc(C2/C(=C(\O)c3ccccc3)C(=O)C(=O)N2c2cccc(Cl)c2)c(OC)c1 (stereo not given)
25 | > 44.3 µM (inactive) |  | COc1ccc(/C(O)=C2/C(=O)C(=O)NC2c2ccc(OC)cc2OC)cc1 (stereo not given)
26 | > 44.3 µM (inactive) |  | COc1cc(C2C(C(=O)c3cc4ccccc4o3)=C(O)C(=O)N2CCN(C)C)ccc1O (stereo not given)
27 | > 44.3 µM (inactive) |  | O=C(C1=C(O)C(=O)N(CCCn2ccnc2)C1c1cccnc1)c1ccco1 (stereo not given)
28 | > 44.3 µM (inactive) |  | COc1ccc(/C(O)=C2/C(=O)C(=O)N(CCc3c[nH]c4ccccc34)C2c2ccc(C(C)C)cc2)cc1 (stereo not given)
29 | > 44.3 µM (inactive) |  | O=C1NC(c2ccc(Br)cc2)/C(=C(\O)c2ccc(Cl)cc2)C1=O (stereo not given)
30 | > 44.3 µM (inactive) |  | COc1ccc(C2C(C(=O)c3cc4ccccc4o3)=C(O)C(=O)N2CCN(C)C)cc1OC (stereo not given)
31 |  | 0.5 µM | CCc1cc2c(=O)c(-c3nc4ccccc4n3C)c(C)oc2cc1OC(C)=O
32 |  | 13.6 µM | COc1ccc(-c2c(C(F)(F)F)oc3cc(OC(=O)c4cccnc4)ccc3c2=O)cc1OC
33 | 1.8 µM | 2.8 µM | COCCN1C(=O)C(=O)/C(=C(/O)c2ccccc2)C1c1cc(OC)ccc1OC (stereo not given)
34 |  | 3.8 µM | Cc1nc2c(-c3ccc(Cl)cc3)c(C(F)(F)F)[nH]n2c(=O)c1Cc1ccccc1
35 | > 44.3 µM (inactive) |  | Cc1ccc(N2C(=O)C(=O)/C(=C(\O)c3ccccc3)C2c2cccc(F)c2)cc1Br (stereo not given)
36 | > 44.3 µM (inactive) |  | COc1ccc(OC)c(C2/C(=C(\O)c3ccc(C)cc3)C(=O)C(=O)N2CCC(=O)O)c1 (stereo not given)
37 | > 44.3 µM (inactive) |  | O=C(O)CCCN1C(=O)C(=O)/C(=C(/O)c2ccccc2)C1/C=C/c1ccccc1 (stereo not given)
38 | > 44.3 µM (inactive) |  | O=C1C(=O)N(c2ccc(F)cc2)C(c2ccc(Br)cc2)/C1=C(/O)c1ccccc1 (stereo not given)
39 | > 44.3 µM (inactive) |  | O=C(C1=C(O)C(=O)N(CCCn2ccnc2)C1c1cccnc1)c1cc2ccccc2o1 (stereo not given)
40 | inactive | 31.1 µM | COCCCN1C(=O)C(=O)/C(=C(/O)c2ccccc2)C1c1ccc(C(C)C)cc1 (stereo not given)
